{"source": "patent US20170334899A1", "about": "“AMINO-SUBSTITUTED ISOTHIAZOLES” (Bayer Pharma Aktiengesellschaft, priority 2014, published 2017)", "key": {"HeLa": {"tested_on": "HeLa", "experiment": "Proliferation assay (crystal violet), HeLa", "type": "cell-based", "conditions": "Homo sapiens, HeLa, 96 h, HeLa cells; 4 days incubation; crystal violet staining; read-out: IC50 inhibition of proliferation, HeLa", "procedure,_shortened": "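Four-day compound exposure (0.001-10 μM, 0.5% DMSO final) began 24 h after seeding 1000-5000 cells/well in medium with 10% fetal calf serum. Cell number read by crystal violet absorbance at 595 nm, scaled between day-zero plate and untreated control; 4-parameter fit gave IC50.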"}, "[1]": {"tested_on": "human cervical tumor cell line HeLa (ATCC CCL-2)", "experiment": "SAC-Formation - Paclitaxel-Induced Assay", "type": "cell-based", "conditions": "Homo sapiens, HeLa, 24 h, HeLa cells, paclitaxel 0.05 μM, test range 0.005 μM-20 μM, read-out: IC50 [mol/l] SAC-Formation - Paclitaxel-Induced Assay", "procedure,_shortened": "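Read-out is high-content imaging of anti-phospho-H3 Ser10 (mitosis) and Hoechst 33342 (DNA, cell number), with decreased mitotic fraction marking checkpoint breakthrough. Compounds (0.005–20 μM) and 0.05 μM paclitaxel co-added to overnight-plated HeLa for 24 h at 37° C; four-parameter Hill fit.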"}}, "data": [{"smiles": "Cc1nsc(Nc2cnc(C(F)(F)F)cn2)c1C(=O)Nc1ccc(F)c(OC[C@@H]2CCCN(CC(F)F)C2)c1", "note": "[Example 341, N-(3-{[(3R)-1-(2,2-difluoroethyl)piperidin-3-yl]methoxy}-4-fluorophenyl)-3-methyl-5-{[5-(trifluoromethyl)pyrazin-2-yl]amino}-1,2-thiazole-4-carboxamide]", "values": [{"measurement": "IC50", "setting": "HeLa", "value": 440, "unit": "nM"}, {"measurement": "IC50", "setting": "[1]", "value": 37, "unit": "nM"}]}, {"smiles": "Cc1nsc(Nc2cnc(C(F)(F)F)cn2)c1C(=O)Nc1ccc(F)c(OC[C@@H]2CCCN(CC(F)(F)F)C2)c1", "note": "[Example 342, N-(4-fluoro-3-{[(3R)-1-(2,2,2-trifluoroethyl)piperidin-3-yl]methoxy}phenyl)-3-methyl-5-{[5-(trifluoromethyl)pyrazin-2-yl]amino}-1,2-thiazole-4-carboxamide]", "values": [{"measurement": "IC50", "setting": "HeLa", "value": 470, "unit": "nM"}, {"measurement": "IC50", "setting": "[1]", "value": 110, "unit": "nM"}]}, {"smiles": "Cc1nsc(Nc2cncc(C(F)(F)F)n2)c1C(=O)Nc1ccc(F)c(OC2CCN(CCC(F)(F)F)CC2)c1", "note": "[Example 343, N-(4-fluoro-3-{[1-(3,3,3-trifluoropropyl)piperidin-4-yl]oxy}phenyl)-3-methyl-5-{[6-(trifluoromethyl)pyrazin-2-yl]amino}-1,2-thiazole-4-carboxamide]", "values": [{"measurement": "IC50", "setting": "HeLa", "value": 1400, "unit": "nM"}, {"measurement": "IC50", "setting": "[1]", "value": 210, "unit": "nM"}]}, {"smiles": "Cc1nsc(Nc2cnc(C(F)(F)F)cn2)c1C(=O)Nc1ccc(OCC2CCN(CCF)CC2)nc1", "note": "[Example 344, N-(6-{[1-(2-fluoroethyl)piperidin-4-yl]methoxy}pyridin-3-yl)-3-methyl-5-{[5-(trifluoromethyl)pyrazin-2-yl]amino}-1,2-thiazole-4-carboxamide]", "values": [{"measurement": "IC50", "setting": "HeLa", "value": 990, "unit": "nM"}, {"measurement": "IC50", "setting": "[1]", "value": 280, "unit": "nM"}]}, {"smiles": "Cc1nsc(Nc2cnc(C(F)(F)F)cn2)c1C(=O)Nc1ccc(OCC2CCN(CC(F)F)CC2)nc1", "note": "[Example 345, N-(6-{[1-(2,2-difluoroethyl)piperidin-4-yl]methoxy}pyridin-3-yl)-3-methyl-5-{[5-(trifluoromethyl)pyrazin-2-yl]amino}-1,2-thiazole-4-carboxamide]", "values": [{"measurement": "IC50", "setting": "HeLa", "value": 270, "unit": "nM"}, {"measurement": "IC50", "setting": "[1]", "value": 21, "unit": "nM"}]}, {"smiles": "Cc1nsc(Nc2cnc(C(F)(F)F)cn2)c1C(=O)Nc1ccc(OCC2CCN(CC(F)(F)F)CC2)nc1", "note": "[Example 346, 3-methyl-N-(6-{[1-(2,2,2-trifluoroethyl)piperidin-4-yl]methoxy}pyridin-3-yl)-5-{[5-(trifluoromethyl)pyrazin-2-yl]amino}-1,2-thiazole-4-carboxamide]", "values": [{"measurement": "IC50", "setting": "HeLa", "value": 270, "unit": "nM"}, {"measurement": "IC50", "setting": "[1]", "value": 32, "unit": "nM"}]}, {"smiles": "Cc1nsc(Nc2cnc(C(F)(F)F)cn2)c1C(=O)Nc1ccc(OCC2CCN(CCC(F)(F)F)CC2)nc1", "note": "[Example 347, 3-methyl-5-{[5-(trifluoromethyl)pyrazin-2-yl]amino}-N-(6-{[1-(3,3,3-trifluoropropyl)piperidin-4-yl]methoxy}pyridin-3-yl)-1,2-thiazole-4-carboxamide]", "values": [{"measurement": "IC50", "setting": "HeLa", "value": 390, "unit": "nM"}, {"measurement": "IC50", "setting": "[1]", "value": 64, "unit": "nM"}]}, {"smiles": "Cc1nsc(Nc2cnc(C(F)(F)F)cn2)c1C(=O)Nc1ccc(OCCN(C)CCF)nc1", "note": "[Example 348, N-(6-{2-[(2-fluoroethyl)(methyl)amino]ethoxy}pyridin-3-yl)-3-methyl-5-{[5-(trifluoromethyl)pyrazin-2-yl]amino}-1,2-thiazole-4-carboxamide]", "values": [{"measurement": "IC50", "setting": "HeLa", "value": 1000, "unit": "nM"}, {"measurement": "IC50", "setting": "[1]", "value": 520, "unit": "nM"}]}, {"smiles": "Cc1nsc(Nc2cnc(C(F)(F)F)cn2)c1C(=O)Nc1ccc(OCCN(C)CC(F)F)nc1", "note": "[Example 349, N-(6-{2-[(2,2-difluoroethyl)(methyl)amino]ethoxy}pyridin-3-yl)-3-methyl-5-{[5-(trifluoromethyl)pyrazin-2-yl]amino}-1,2-thiazole-4-carboxamide]", "values": [{"measurement": "IC50", "setting": "HeLa", "value": 350, "unit": "nM"}, {"measurement": "IC50", "setting": "[1]", "value": 50, "unit": "nM"}]}, {"smiles": "Cc1nsc(Nc2cnc(C(F)(F)F)cn2)c1C(=O)Nc1ccc(OCCN(C)CC(F)(F)F)nc1", "note": "[Example 350, 3-methyl-N-(6-{2-[methyl(2,2,2-trifluoroethyl)amino]ethoxy}pyridin-3-yl)-5-{[5-(trifluoromethyl)pyrazin-2-yl]amino}-1,2-thiazole-4-carboxamide]", "values": [{"measurement": "IC50", "setting": "HeLa", "value": 280, "unit": "nM"}, {"measurement": "IC50", "setting": "[1]", "value": 57, "unit": "nM"}]}, {"smiles": "Cc1nsc(Nc2cnc(C(F)(F)F)cn2)c1C(=O)Nc1ccc(OCCN(C)CCC(F)(F)F)nc1", "note": "[Example 351, 3-methyl-N-(6-{2-[methyl(3,3,3-trifluoropropyl)amino]ethoxy}pyridin-3-yl)-5-{[5-(trifluoromethyl)pyrazin-2-yl]amino}-1,2-thiazole-4-carboxamide]", "values": [{"measurement": "IC50", "setting": "HeLa", "value": 350, "unit": "nM"}, {"measurement": "IC50", "setting": "[1]", "value": 210, "unit": "nM"}]}, {"smiles": "Cc1nsc(Nc2cnc(C(F)(F)F)cn2)c1C(=O)Nc1ccc(OCCCN(C)CCF)nc1", "note": "[Example 352, N-(6-{3-[(2-fluoroethyl)(methyl)amino]propoxy}pyridin-3-yl)-3-methyl-5-{[5-(trifluoromethyl)pyrazin-2-yl]amino}-1,2-thiazole-4-carboxamide]", "values": [{"measurement": "IC50", "setting": "HeLa", "value": 1100, "unit": "nM"}, {"measurement": "IC50", "setting": "[1]", "value": 520, "unit": "nM"}]}, {"smiles": "Cc1nsc(Nc2cnc(C(F)(F)F)cn2)c1C(=O)Nc1ccc(OCCCN(C)CC(F)F)nc1", "note": "[Example 353, N-(6-{3-[(2,2-difluoroethyl)(methyl)amino]propoxy}pyridin-3-yl)-3-methyl-5-{[5-(trifluoromethyl)pyrazin-2-yl]amino}-1,2-thiazole-4-carboxamide]", "values": [{"measurement": "IC50", "setting": "HeLa", "value": 330, "unit": "nM"}, {"measurement": "IC50", "setting": "[1]", "value": 150, "unit": "nM"}]}, {"smiles": "Cc1nsc(Nc2cnc(C(F)(F)F)cn2)c1C(=O)Nc1ccc(OCCCN(C)CC(F)(F)F)nc1", "note": "[Example 354, 3-methyl-N-(6-{3-[methyl(2,2,2-trifluoroethyl)amino]propoxy}pyridin-3-yl)-5-{[5-(trifluoromethyl)pyrazin-2-yl]amino}-1,2-thiazole-4-carboxamide]", "values": [{"measurement": "IC50", "setting": "HeLa", "value": 330, "unit": "nM"}, {"measurement": "IC50", "setting": "[1]", "value": 120, "unit": "nM"}]}, {"smiles": "Cc1nsc(Nc2cnc(C(F)(F)F)cn2)c1C(=O)Nc1ccc(OCCCN(C)CCC(F)(F)F)nc1", "note": "[Example 355, 3-methyl-N-(6-{3-[methyl(3,3,3-trifluoropropyl)amino]propoxy}pyridin-3-yl)-5-{[5-(trifluoromethyl)pyrazin-2-yl]amino}-1,2-thiazole-4-carboxamide]", "values": [{"measurement": "IC50", "setting": "HeLa", "value": 330, "unit": "nM"}, {"measurement": "IC50", "setting": "[1]", "value": 190, "unit": "nM"}]}, {"smiles": "Cc1nsc(Nc2cnc(C(F)(F)F)cn2)c1C(=O)Nc1ccc(CCC2CCN(CC(F)F)CC2)nc1", "note": "[Example 356, N-(6-{2-[1-(2,2-difluoroethyl)piperidin-4-yl]ethyl}pyridin-3-yl)-3-methyl-5-{[5-(trifluoromethyl)pyrazin-2-yl]amino}-1,2-thiazole-4-carboxamide]", "values": [{"measurement": "IC50", "setting": "HeLa", "value": 770, "unit": "nM"}, {"measurement": "IC50", "setting": "[1]", "value": 250, "unit": "nM"}]}, {"smiles": "Cc1nsc(Nc2cnc(C(F)(F)F)cn2)c1C(=O)Nc1ccc(C2CCN(CC(F)F)CC2)nc1", "note": "[Example 357, N-{6-[1-(2,2-difluoroethyl)piperidin-4 yl]pyridin-3-yl}-3-methyl-5-{[5-(trifluoromethyl)pyrazin-2-yl]amino}-1,2-thiazole-4-carboxamide]", "values": [{"measurement": "IC50", "setting": "HeLa", "value": 430, "unit": "nM"}, {"measurement": "IC50", "setting": "[1]", "value": 99, "unit": "nM"}]}, {"smiles": "Cc1nsc(Nc2cnc(C(F)(F)F)cn2)c1C(=O)Nc1ccc(C2CCN(CC(F)(F)F)CC2)nc1", "note": "[Example 358, 3-methyl-N-{6-[1-(2,2,2-trifluoroethyl)piperidin-4-yl]pyridin-3-yl}-5-{[5-(trifluoromethyl)pyrazin-2-yl]amino}-1,2-thiazole-4-carboxamide]", "values": [{"measurement": "IC50", "setting": "HeLa", "value": 320, "unit": "nM"}, {"measurement": "IC50", "setting": "[1]", "value": 68, "unit": "nM"}]}, {"smiles": "Cc1nsc(Nc2cnc(C(F)(F)F)cn2)c1C(=O)Nc1ccc(N2CCN(CC(F)F)CC2)nc1", "note": "[Example 359, N-{6-[4-(2,2-difluoroethyl)piperazin-1-yl]pyridin-3-yl}-3-methyl-5-{[5-(trifluoromethyl)pyrazin-2-yl]amino}-1,2-thiazole-4-carboxamide]", "values": [{"measurement": "IC50", "setting": "HeLa", "value": 640, "unit": "nM"}, {"measurement": "IC50", "setting": "[1]", "value": 110, "unit": "nM"}]}]}
